Experimental data published in patent publication US20260262643A1, “HERBICIDAL BENZOXAZINES” (FMC CORPORATION, priority 2022, published 2026).

How the values were obtained:
[1] = system: soybean; assay: Test A preemergence; assay type: in vivo, Glycine max
Outline: (§1)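 Visual injury ratings on a 0–100 scale (100 = complete control) versus untreated controls, taken 10 days after treatment in greenhouse. Preemergence: directed soil spray onto seeded loam/sand. Postemergence: foliar application at one- to two-leaf stage, plants 2–10 cm. Formulation: non-phytotoxic solvent plus surfactant.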

[2] = system: ryegrass, Italian; assay: Test A preemergence; assay type: in vivo, Lolium multiflorum
Outline: as §1

[3] = system: corn; assay: Test A preemergence; assay type: in vivo, Zea mays
Outline: as §1

[4] = system: oat, wild; assay: Test A postemergence; assay type: in vivo, Avena fatua; settings: postemergence, 10 days; for Oat, Wild plant response rating: 125 g ai/ha, 0 to 100 scale, 0 no effect, 100 complete control; for Plant response rating, Oat, Wild: 500 g ai/ha, visual injury, 0 to 100 scale (0 no effect, 100 complete control)
Outline: as §1

[5] = system: ragweed; assay: Test A postemergence; assay type: in vivo, Ambrosia artemisiifolia; settings: postemergence, 10 days; for Ragweed plant response rating: 125 g ai/ha, 0 to 100 scale, 0 no effect, 100 complete control; for Plant response rating, Ragweed: 500 g ai/ha, visual injury, 0 to 100 scale (0 no effect, 100 complete control)
Outline: as §1

[6] = system: pigweed, palmer; assay: Test A postemergence; assay type: in vivo, Amaranthus palmeri; settings: postemergence, 10 days; for Pigweed, Palmer plant response rating: 125 g ai/ha, 0 to 100 scale, 0 no effect, 100 complete control; for Plant response rating, Pigweed, Palmer: 500 g ai/ha, visual injury, 0 to 100 scale (0 no effect, 100 complete control)
Outline: as §1

[7] = system: horseweed; assay: Test A postemergence; assay type: in vivo, Erigeron canadensis; settings: postemergence, 10 days; for Horseweed plant response rating: 125 g ai/ha, 0 to 100 scale, 0 no effect, 100 complete control; for Plant response rating, Horseweed: 500 g ai/ha, visual injury, 0 to 100 scale (0 no effect, 100 complete control)
Outline: as §1

[8] = system: goosegrass; assay: Test A preemergence; assay type: in vivo, Eleusine indica
Outline: as §1

[9] = system: pigweed, palmer; assay: Test A preemergence; assay type: in vivo, Amaranthus palmeri
Outline: as §1

[10] = system: oat, wild; assay: Test A preemergence; assay type: in vivo, Avena fatua
Outline: as §1

[11] = system: rice; assay: Test B flooded paddy test; assay type: in vivo, Oryza sativa; settings: 250 g ai/ha, Flood, 13 days, 0 to 100 scale (0 no effect, 100 complete control)
Outline: (§2)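 2-leaf stage; pots flooded 3 cm over soil; compound dosed into paddy water; depth kept constant. Greenhouse, 13 d. Visual rating vs controls, 0 (no effect)–100 (complete control). Dash = no result.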

[12] = system: ducksalad; assay: Test B flooded paddy test; assay type: in vivo, Heteranthera limosa; settings: 250 g ai/ha, Flood, 13 days, 0 to 100 scale (0 no effect, 100 complete control)
Outline: as §2

[13] = system: goosegrass; assay: Test A postemergence; assay type: in vivo, Eleusine indica; settings: postemergence, 10 days; for Goosegrass plant response rating: 125 g ai/ha, 0 to 100 scale, 0 no effect, 100 complete control; for Plant response rating, Goosegrass: 500 g ai/ha, visual injury, 0 to 100 scale (0 no effect, 100 complete control)
Outline: as §1

[14] = system: ryegrass, Italian; assay: Test A postemergence; assay type: in vivo, Lolium multiflorum; settings: postemergence, 10 days; for Ryegrass, Italian plant response rating: 125 g ai/ha, 0 to 100 scale, 0 no effect, 100 complete control; for Plant response rating, Ryegrass, Italian: 500 g ai/ha, visual injury, 0 to 100 scale (0 no effect, 100 complete control)
Outline: as §1

[15] = system: kochia; assay: Test A preemergence; assay type: in vivo, Bassia scoparia
Outline: as §1

[16] = system: kochia; assay: Test A postemergence; assay type: in vivo, Bassia scoparia; settings: postemergence, 10 days; for Kochia plant response rating: 125 g ai/ha, 0 to 100 scale, 0 no effect, 100 complete control; for Plant response rating, Kochia: 500 g ai/ha, visual injury, 0 to 100 scale (0 no effect, 100 complete control)
Outline: as §1

[17] = system: wheat; assay: Test A postemergence; assay type: in vivo, Triticum aestivum; settings: postemergence, 10 days; for Wheat plant response rating: 125 g ai/ha, 0 to 100 scale, 0 no effect, 100 complete control; for Plant response rating, Wheat: 500 g ai/ha, visual injury, 0 to 100 scale (0 no effect, 100 complete control)
Outline: as §1

[18] = system: ragweed; assay: Test A preemergence; assay type: in vivo, Ambrosia artemisiifolia
Outline: as §1

[19] = system: corn; assay: Test A postemergence; assay type: in vivo, Zea mays; settings: postemergence, 10 days; for Corn plant response rating: 125 g ai/ha, 0 to 100 scale, 0 no effect, 100 complete control; for Plant response rating, Corn: 500 g ai/ha, visual injury, 0 to 100 scale (0 no effect, 100 complete control)
Outline: as §1

[20] = system: barnyardgrass; assay: Test B flooded paddy test; assay type: in vivo, Echinochloa crus-galli; settings: 250 g ai/ha, Flood, 13 days, 0 to 100 scale (0 no effect, 100 complete control)
Outline: as §2

[21] = system: sedge, umbrella; assay: Test B flooded paddy test; assay type: in vivo, Cyperus difformis; settings: 250 g ai/ha, Flood, 13 days, 0 to 100 scale (0 no effect, 100 complete control)
Outline: as §2

[22] = system: blackgrass; assay: Test A postemergence; assay type: in vivo, Alopecurus myosuroides; settings: postemergence, 10 days; for Blackgrass plant response rating: 125 g ai/ha, 0 to 100 scale, 0 no effect, 100 complete control; for Plant response rating, Blackgrass: 500 g ai/ha, visual injury, 0 to 100 scale (0 no effect, 100 complete control)
Outline: as §1

[23] = system: foxtail, giant; assay: Test A preemergence; assay type: in vivo, Setaria faberi
Outline: as §1

[24] = system: wheat; assay: Test A preemergence; assay type: in vivo, Triticum aestivum
Outline: as §1

[25] = system: blackgrass; assay: Test A preemergence; assay type: in vivo, Alopecurus myosuroides
Outline: as §1

[26] = system: soybean; assay: Test A postemergence; assay type: in vivo, Glycine max; settings: postemergence, 10 days; for Soybean plant response rating: 125 g ai/ha, 0 to 100 scale, 0 no effect, 100 complete control; for Plant response rating, Soybean: 500 g ai/ha, visual injury, 0 to 100 scale (0 no effect, 100 complete control)
Outline: as §1

[27] = system: foxtail, giant; assay: Test A postemergence; assay type: in vivo, Setaria faberi; settings: postemergence, 10 days; for Foxtail, Giant plant response rating: 125 g ai/ha, 0 to 100 scale, 0 no effect, 100 complete control; for Plant response rating, Foxtail, Giant: 500 g ai/ha, visual injury, 0 to 100 scale (0 no effect, 100 complete control)
Outline: as §1

[28] = system: galium; assay: Test A postemergence; assay type: in vivo, Galium aparine; settings: postemergence, 10 days
Outline: as §1

[29] = 125 g ai/ha, visual injury after 10 days, 0 to 100 scale, 0 is no effect, 100 is complete control
[30] = 500 g ai/ha, 0 to 100 scale (0 no effect, 100 complete control), 10 days

Compound: COc1ccc(-n2cnc(C)n2)cc1C(=O)N1C[C@H](C)Oc2c(Cl)cccc21 [Compound 89]
- Plant response rating, Soybean [1, 29]: 100
- Plant response rating, Soybean [1, 30]: 100
- Plant response rating, Ryegrass, Italian [2, 29]: 90
- Plant response rating, Ryegrass, Italian [2, 30]: 100
- Plant response rating, Corn [3, 29]: 20
- Plant response rating, Corn [3, 30]: 60
- Oat, Wild plant response rating [4]: 80
- Plant response rating, Oat, Wild [4]: 90
- Ragweed plant response rating [5]: 60
- Plant response rating, Ragweed [5]: 80
- Pigweed, Palmer plant response rating [6]: 70
- Plant response rating, Pigweed, Palmer [6]: 100
- Horseweed plant response rating [7]: 20
- Plant response rating, Horseweed [7]: 40
- Plant response rating, Goosegrass [8, 29]: 100
- Plant response rating, Goosegrass [8, 30]: 100
- Plant response rating, Pigweed, Palmer [9, 29]: 90
- Plant response rating, Pigweed, Palmer [9, 30]: 100
- Plant response rating, Oat, Wild [10, 29]: 70
- Plant response rating, Oat, Wild [10, 30]: 90
- Plant response rating, Rice [11]: 15
- Plant response rating, Ducksalad [12]: 100
- Goosegrass plant response rating [13]: 90
- Plant response rating, Goosegrass [13]: 100
- Ryegrass, Italian plant response rating [14]: 100
- Plant response rating, Ryegrass, Italian [14]: 100
- Plant response rating, Kochia [15, 29]: 70
- Plant response rating, Kochia [15, 30]: 100
- Kochia plant response rating [16]: 70
- Plant response rating, Kochia [16]: 90
- Wheat plant response rating [17]: 50
- Plant response rating, Wheat [17]: 50
- Plant response rating, Ragweed [18, 29]: 40
- Plant response rating, Ragweed [18, 30]: 90
- Corn plant response rating [19]: 70
- Plant response rating, Corn [19]: 70
- Plant response rating, Barnyardgrass [20]: 60
- Plant response rating, Sedge, Umbrella [21]: 100
- Blackgrass plant response rating [22]: 70
- Plant response rating, Blackgrass [22]: 80
- Plant response rating, Foxtail, Giant [23, 29]: 100
- Plant response rating, Foxtail, Giant [23, 30]: 100
- Plant response rating, Wheat [24, 29]: 20
- Plant response rating, Wheat [24, 30]: 60
- Plant response rating, Blackgrass [25, 29]: 70
- Plant response rating, Blackgrass [25, 30]: 90
- Soybean plant response rating [26]: 100
- Plant response rating, Soybean [26]: 100
- Foxtail, Giant plant response rating [27]: 90
- Plant response rating, Foxtail, Giant [27]: 100

Compound: C[C@H]1CN(C(=O)c2cccc(-n3cnc(CC4CCCCC4)n3)c2)c2cccc(Cl)c2O1 [Compound 90]
- Plant response rating, Soybean [1, 29]: 0
- Plant response rating, Soybean [1, 30]: 0
- Plant response rating, Ryegrass, Italian [2, 29]: 0
- Plant response rating, Ryegrass, Italian [2, 30]: 0
- Plant response rating, Corn [3, 29]: 0
- Plant response rating, Corn [3, 30]: 0
- Oat, Wild plant response rating [4]: 0
- Plant response rating, Oat, Wild [4]: 0
- Ragweed plant response rating [5]: 0
- Plant response rating, Ragweed [5]: 0
- Pigweed, Palmer plant response rating [6]: 0
- Plant response rating, Pigweed, Palmer [6]: 50
- Horseweed plant response rating [7]: 0
- Plant response rating, Horseweed [7]: 0
- Plant response rating, Goosegrass [8, 29]: 0
- Plant response rating, Goosegrass [8, 30]: 0
- Plant response rating, Pigweed, Palmer [9, 29]: 0
- Plant response rating, Pigweed, Palmer [9, 30]: 0
- Plant response rating, Oat, Wild [10, 29]: 0
- Plant response rating, Oat, Wild [10, 30]: 0
- Plant response rating, Rice [11]: 0
- Galium plant response rating ([28]; 125 g ai/ha, 0 to 100 scale, 0 no effect, 100 complete control): 0
- Plant response rating, Galium ([28]; 500 g ai/ha, visual injury, 0 to 100 scale (0 no effect, 100 complete control)): 0
- Plant response rating, Ducksalad [12]: 0
- Goosegrass plant response rating [13]: 0
- Plant response rating, Goosegrass [13]: 0
- Ryegrass, Italian plant response rating [14]: 0
- Plant response rating, Ryegrass, Italian [14]: 0
- Kochia plant response rating [16]: 0
- Plant response rating, Kochia [16]: 20
- Wheat plant response rating [17]: 10
- Plant response rating, Wheat [17]: 10
- Plant response rating, Ragweed [18, 29]: 0
- Plant response rating, Ragweed [18, 30]: 0
- Corn plant response rating [19]: 0
- Plant response rating, Corn [19]: 0
- Plant response rating, Barnyardgrass [20]: 0
- Plant response rating, Sedge, Umbrella [21]: 0
- Blackgrass plant response rating [22]: 0
- Plant response rating, Blackgrass [22]: 0
- Plant response rating, Foxtail, Giant [23, 29]: 0
- Plant response rating, Foxtail, Giant [23, 30]: 0
- Plant response rating, Wheat [24, 29]: 0
- Plant response rating, Wheat [24, 30]: 0
- Plant response rating, Blackgrass [25, 29]: 0
- Plant response rating, Blackgrass [25, 30]: 0
- Soybean plant response rating [26]: 20
- Plant response rating, Soybean [26]: 20
- Foxtail, Giant plant response rating [27]: 0
- Plant response rating, Foxtail, Giant [27]: 0
